# Patent US4985409A, “Adenosine derivatives and pharmaceutical composition thereof” (Nippon Zoki Pharmaceutical Co., Ltd., priority 1989, dated 1991)
# How the values were obtained:
# [1] = tested on: spontaneously hypertensive rats (SHR); experiment: Antihypertensive activity (blood pressure in spontaneously hypertensive rats, oral); format: in vivo; settings: mean ±S.E.
# Description: The test compounds, which were dissolved or suspended in 0.5% C.M.C. aqueous solution, were orally administered to groups of 3 spontaneously hypertensive rats (SHR), 33 to 36 weeks old, which were fasted for 20 hours before drug administration. Blood pressure was measured before and 2 hours after the administration of the test drug.
# [2] = Acute toxicity test (oral LD50, death rate for 14 days); settings: mouse, in vivo, ddY-strain male mice
# Description: The test compounds of the present invention, which were dissolved or suspended in 0.5% carboxymethylcellulose (C.M.C.) aqueous solution, were orally administered to groups of 2 to 5 ddY-strain male mice, and the LD50 values were calculated based on the death rate for 14 days thereafter.
# [3] = Rattus norvegicus, 2 hours after oral 3 mg/kg, read-out: Blood pressure (Decrease %)
# [4] = Rattus norvegicus, 2 hours after oral 0.3 mg/kg, read-out: Blood pressure (Decrease %)
SMILES,LD50 at 336 h [2],Blood pressure 2 hrs ([1]; 2 hours after oral 3 mg/kg),"inhibition in vivo at 3 mg/kg [1, 3]",further results
"CO[C@@H]1[C@H](O)[C@@H](CO)O[C@H]1n1cnc2c(NC3CCOc4ccccc43)ncnc21 (stereo partly shown) [Compound 24, N^6-(4-chromanyl)-2'-O-methyladenosine]",250 mg/kg,–,–,"Blood pressure 2 hrs ([1]; 2 hours after oral 1 mg/kg): 98 ± 15 mmHg; inhibition in vivo at 1 mg/kg ([1]; Rattus norvegicus, 2 hours after oral 1 mg/kg, read-out: Blood pressure (Decrease %)): 55.4 ± 5.6%"
"CO[C@@H]1[C@H](O)[C@@H](CO)O[C@H]1n1cnc2c(NC3CCc4ccccc43)ncnc21 (stereo partly shown) [Compound 11, N^6-(2,3-dihydro-1H-indene-1-yl)-2'-O-methyladenosine]",450 mg/kg,133 ± 21 mmHg,41.3 ± 7%,–
"CO[C@@H]1[C@H](O)[C@@H](CO)O[C@H]1n1cnc2c(NC3Cc4ccccc4C3)ncnc21 [Compound 12, N^6-(2,3-dihydro-1H-indene-2-yl)-2'-O-methyladenosine]",–,–,–,"Blood pressure 2 hrs ([1]; 2 hours after oral 10 mg/kg): 164 ± 5 mmHg; inhibition in vivo at 10 mg/kg ([1]; Rattus norvegicus, 2 hours after oral 10 mg/kg, read-out: Blood pressure (Decrease %)): 22.7 ± 2.2%"
"CO[C@@H]1[C@H](O)[C@@H](CO)O[C@H]1n1cnc2c(NCc3cccc4ccccc34)ncnc21 [Compound 8, N^6-(1-naphthyl)methyl-2'-O-methyladenosine]",230 mg/kg,140 ± 7 mmHg,36.2 ± 5.7%,–
"CO[C@@H]1[C@H](O)[C@@H](CO)O[C@H]1n1cnc2c(NC3CCc4ccccc4C3)ncnc21 (stereo partly shown) [Compound 17, N^6-(2-tetrahydronaphthyl)-2'-O-methyladenosine]",–,187 ± 7 mmHg,14.5 ± 1.9%,–
"CO[C@@H]1[C@H](O)[C@@H](CO)O[C@H]1n1cnc2c(NC3CCCC3)ncnc21 [Compound 1, N^6-cyclopentyl-2'-O-methyladenosine]",–,–,–,"Blood pressure 2 hrs ([1]; 2 hours after oral 0.3 mg/kg): 98 ± 8 mmHg; inhibition in vivo at 0.3 mg/kg [1, 4]: 56.5 ± 5.5%"
"CO[C@@H]1[C@H](O)[C@@H](CO)O[C@H]1n1cnc2c(NC3CCCc4ccccc43)ncnc21 (stereo partly shown) [Compound 16, N^6-(1-tetrahydronaphthyl)-2'-O-methyladenosine]",230 mg/kg,109 ± 9 mmHg,47.2 ± 4.2%,–
"CO[C@@H]1[C@H](O)[C@@H](CO)O[C@H]1n1cnc2c(NC3CCCCC3)ncnc21 [Compound 2, N^6-cyclohexyl-2'-O-methyladenosine]",–,–,–,"Blood pressure 2 hrs ([1]; 2 hours after oral 0.3 mg/kg): 129 ± 8 mmHg; inhibition in vivo at 0.3 mg/kg [1, 4]: 37.5 ± 1.7%"
"CO[C@@H]1[C@H](O)[C@@H](CO)O[C@H]1n1cnc2c(NCC(c3ccccc3)c3ccccc3)ncnc21 [Compound 5, N^6-(2,2-diphenylethyl)-2'-O-methyladenosine]",–,148 ± 19 mmHg,30 ± 8.4%,–
